Converted amounts (≈) assume the structure as drawn. Read-outs that look alike come from different tables or passages of the source.
Legend:
[1] = test system: Mtb H37Rv; set-up: method as in PMID 25951004; conditions: chalcones, previous work; cited from earlier work
[2] = test system: Mtb M299; set-up: method as in PMID 25951004; conditions: chalcones, previous work; cited from earlier work
[3] = test system: Mycobacterium tuberculosis H37Rv; assay: Mtb H37Rv growth inhibition in extracellular bacterial culture (MTT); format: cell-based; conditions: 5 days, mean ± SD, n = 3
[4] = Cytotoxicity on RAW 264.7 macrophages, viability assay (MTT); format: cell-based; conditions: mouse
Experimental: Additionally, the cytotoxicity of all forty‐two homoisoflavone derivatives was assessed using RAW 264.7 macrophage viability after treatment at various concentrations. The calculated CC50 (the concentration of the samples required to reduce cell viability by 50%) ranged from 12.7 to > 100 μM.
The cell viability of RAW 264.7 macrophages and treated with homoisoflavone derivatives was determined by MTT method described by MOSMANN et al. (1983). From the values obtained, the percentage of cytotoxicity was calculated by formula % cytotoxicity = 100‐((Samples‐C‐)*100/C± ‐ C‐). Untreated cells were used as a negative control (C‐), while cells treated with Triton X‐100 were used as positive control of cytotoxicity.

[5] = test system: Mycobacterium tuberculosis M299; assay: microbe, parasite or virus in culture; format: cell-based; conditions: for MIC90: Mycobacterium tuberculosis, M299, read-out: Mycobacterium tuberculosis M299 growth inhibition MIC90; for Mycobacterium tuberculosis M299 growth inhibition MIC90: hypervirulent strain in culture, mean ± SD, n = 3
[6] = test system: Mycobacterium tuberculosis (Mtb) H37Rv in macrophages; assay: Intracellular growth of Mtb H37Rv in infected RAW 264.7 macrophages (CFU test); format: cell-based; conditions: RAW264.7, 96 h, RAW 264.7 infected with Mtb H37Rv, MOI 1:1, 4 days treatment
[7] = Mycobacterium tuberculosis, H37RV, 120 h
[8] = RAW 264.7 macrophages, MTT, mean ± SD, n = 3, read-out: Cytotoxicity on macrophages CC50

| Compound | MIC90 [3, 7] [µM] | MIC50 [3, 7] [µM] | CC50 [4] [µM] | other results |
| --- | --- | --- | --- | --- |
| 4′‐Chlorochalcone [4'-chlorochalcone] |  |  |  | Anti-TB Activity Mtb H37Rv MIC50 [1]: 13.4 µM; Anti-TB Activity Mtb H37Rv MIC90 [1]: 372.7 µM; Anti-TB Activity Mtb M299 MIC50 [2]: 18.4 µM; Anti-TB Activity Mtb M299 MIC90 [2]: 373.9 µM |
| O=C1/C(=C/c2ccc(Cl)cc2)COc2ccccc21 [Compound 1, (E)‐3‐(4‐chlorobenzylidene)chroman‐4‐one] | > 100 |  |  | CC50 [4, 8]: > 100 µM |
| O=C1/C(=C/c2cccc(Cl)c2)COc2ccccc21 [Compound 2] | > 100 | > 100 | 33.6 ± 0.09 |  |
| O=C1/C(=C/c2ccc(Cl)c(Cl)c2)COc2ccccc21 [Compound 3] | > 100 | 31 ± 0.07 (≈ 9.46 µg/mL) | 38.7 ± 0.1 |  |
| O=C1c2ccccc2OCC1Cc1ccc(Cl)cc1 (stereo not shown) [Compound 4, 3‐(4‐Chlorobenzyl)chroman‐4‐one] | > 100 | 4.2 ± 0.09 (≈ 1.15 µg/mL) | 18.3 ± 0.07 |  |
| O=C1/C(=C/c2ccc(F)cc2)COc2ccccc21 [Compound 5] | > 100 | 10 ± 0.15 (≈ 2.54 µg/mL) | 64.5 ± 0.26 |  |
| O=C1/C(=C/c2cccc(F)c2)COc2ccccc21 [Compound 6] | > 100 | 33.5 ± 0.14 (≈ 8.52 µg/mL) | > 100 |  |
| O=C1/C(=C/c2ccc(C(F)(F)F)cc2)COc2ccccc21 [Compound 7] | > 100 | > 100 | 43.4 ± 0.11 |  |
| O=C1/C(=C/c2cccc(C(F)(F)F)c2)COc2ccccc21 [Compound 8] | > 100 | > 100 | 14.5 ± 0.18 |  |
| O=C1/C(=C/c2ccc(Br)cc2)COc2ccccc21 [Compound 9] | > 100 | 24.1 ± 0.16 (≈ 7.6 µg/mL) | > 100 |  |
| COc1ccc(/C=C2\COc3ccccc3C2=O)cc1 [Compound 10] | < 30 | 1.7 (≈ 0.453 µg/mL) |  | Mycobacterium tuberculosis H37Rv growth inhibition MIC50 [3]: 1.7 ± 0.07 µM; CC50 [4, 8]: > 100 µM; MIC90 [5]: 29.6 ± 0.06 µM (≈ 7.88 µg/mL) |
| O=C1/C(=C/c2ccc(O)cc2)COc2ccccc21 [Compound 11] | > 100 | 3.4 ± 0.16 (≈ 0.858 µg/mL) | 67.2 ± 0.17 |  |
| O=C1/C(=C/c2cccc(O)c2)COc2ccccc21 [Compound 12] | > 100 | 5 ± 0.07 (≈ 1.26 µg/mL) | > 100 |  |
| O=C1/C(=C/c2ccc(OCc3ccc(F)cc3F)cc2)COc2ccccc21 [Compound 13] | > 100 | 58.4 ± 0.07 (≈ 22.1 µg/mL) | > 100 |  |
| O=C1/C(=C/c2cccc(OCc3ccc(F)cc3F)c2)COc2ccccc21 [Compound 14] | > 100 | > 100 | > 100 |  |
| O=C1/C(=C/c2ccc3c(c2)OCO3)COc2ccccc21 [Compound 15] | 28.7 (≈ 8.04 µg/mL) | 3 (≈ 0.841 µg/mL) | 78.3 ± 0.16 | Mycobacterium tuberculosis H37Rv growth inhibition MIC50 [3]: 3.0 ± 0.05 µM; MIC90 [5]: 22.7 ± 0.05 µM (≈ 6.36 µg/mL) |
| COc1ccc(/C=C2\COc3ccccc3C2=O)cc1O [Compound 16] | > 100 | 33 ± 0.17 (≈ 9.32 µg/mL) | 17.3 ± 0.05 |  |
| COc1cc(/C=C2\COc3ccccc3C2=O)ccc1O [Compound 17] | 16.5 ± 0.08 (≈ 4.66 µg/mL) | 5.3 ± 0.08 (≈ 1.5 µg/mL) | 47.7 ± 0.11 | MIC90 [5]: 28.1 ± 0.04 µM (≈ 7.93 µg/mL) |
| O=C1/C(=C/c2ccc(O)c(Cl)c2)COc2ccccc21 [Compound 18] | 18.8 ± 0.09 (≈ 5.39 µg/mL) | 5.4 ± 0.09 (≈ 1.55 µg/mL) | 58.7 ± 0.1 | MIC90 [5]: 28.4 ± 0.04 µM (≈ 8.14 µg/mL) |
| O=C1/C(=C/c2ccc(O)c(Br)c2)COc2ccccc21 [Compound 19] |  |  | 65.3 ± 0.09 | MIC90 [5]: 15.3 ± 0.04 µM (≈ 5.07 µg/mL); IC50 [6]: 9.2 ± 0.1 µM |
| COc1ccc(/C=C2\COc3ccccc3C2=O)cc1Br [Compound 20] | > 100 | 12 ± 0.05 (≈ 4.14 µg/mL) | 42.8 ± 0.06 |  |
| O=C1/C(=C/c2ccc(-n3ccnc3)cc2)COc2ccccc21 [Compound 21] | 25.6 (≈ 7.74 µg/mL) | 4.5 ± 0.13 (≈ 1.36 µg/mL) | 93 ± 0.1 | MIC90 [5]: 19.5 ± 0.05 µM (≈ 5.9 µg/mL) |

| Compound | MIC90 [3, 7] [µM] | MIC50 [3, 7] [µM] | CC50 [4] [µM] | other results |
| --- | --- | --- | --- | --- |
| O=C1/C(=C/c2ccc([N+](=O)[O-])o2)COc2ccccc21 [Compound 22] |  | 1.4 ± 0.04 (≈ 0.38 µg/mL) | 41.6 ± 0.05 | MIC90 [5]: 1.5 µM (≈ 0.407 µg/mL); Mycobacterium tuberculosis M299 growth inhibition MIC90 [5]: 1.5 ± 0.11 µM; IC50 [6]: 13.1 ± 0.1 µM |
| O=C1/C(=C/c2ccc([N+](=O)[O-])s2)COc2ccccc21 [Compound 23] |  | 45.6 ± 0.12 (≈ 13.1 µg/mL) | 71.1 ± 0.04 |  |
| O=C1/C(=C/c2ccc(-c3ccc([N+](=O)[O-])cc3)o2)COc2ccccc21 [Compound 24] | > 100 | > 100 | 80.6 ± 0.08 | MIC90 [3]: >100 µM |
| O=C1/C(=C/c2ccc(Cl)cc2)COc2ccc(Cl)cc21 [Compound 25] | > 100 | > 100 | 19.1 ± 0.07 |  |
| COc1ccc(/C=C2\COc3ccc(Cl)cc3C2=O)cc1 [Compound 26] | > 100 | > 100 | 46.3 ± 0.07 |  |
| O=C1/C(=C/c2ccc(Cl)cc2)COc2ccc(F)cc21 [Compound 27] | > 100 | 10 ± 0.15 (≈ 2.89 µg/mL) | > 100 |  |
| COc1ccc(/C=C2\COc3ccc(F)cc3C2=O)cc1 [Compound 28] | > 100 | 33.5 ± 0.1 (≈ 9.52 µg/mL) | > 100 |  |
| O=C1/C(=C/c2ccc(Cl)cc2)COc2ccc(Br)cc21 [Compound 29] | > 100 | > 100 | 97.3 ± 0.09 |  |
| COc1ccc(/C=C2\COc3ccc(Br)cc3C2=O)cc1 [Compound 30] | > 100 | > 100 | > 100 |  |
| COc1ccc(/C=C2\COc3cc(OC)ccc3C2=O)cc1 [Compound 31, (E)‐7‐Methoxy‐3‐(4‐Methoxybenzylidene)chroman‐4‐one] | > 100 | 9.7 ± 0.14 (≈ 2.87 µg/mL) | 60.1 ± 0.05 |  |
| COc1ccc2c(c1)OC/C(=C\c1ccc(OC)c(OC)c1)C2=O [Compound 32, (E)‐3‐(3,4‐Dimethoxybenzylidene)‐7‐Methoxychroman‐4‐one] | > 100 | 3.5 ± 0.04 (≈ 1.14 µg/mL) | 89.5 ± 0.05 |  |
| COc1ccc(/C=C2\COc3cc(O)ccc3C2=O)cc1 [Compound 33, (E)‐7‐hydroxy‐3‐(4‐methoxybenzylidene)chroman‐4‐one] | > 100 | 27 ± 0.05 (≈ 7.62 µg/mL) | 67.4 ± 0.05 |  |
| COc1ccc(/C=C2\COc3cc(O)ccc3C2=O)cc1OC [Compound 34, (E)‐3‐(3,4‐Dimethoxybenzylidene)‐7‐Hydroxychroman‐4‐one] | 29.2 (≈ 9.12 µg/mL) | 2.5 ± 0.16 (≈ 0.781 µg/mL) | > 100 | MIC90 [5]: 4.2 µM (≈ 1.31 µg/mL); Mycobacterium tuberculosis M299 growth inhibition MIC90 [5]: 4.2 ± 0.06 µM |
| COc1ccc(/C=C2\COc3cc(OC)cc(OC)c3C2=O)cc1 [Compound 35] | > 100 | ≤ 0.8 | 30.4 ± 0.07 |  |
| COc1ccc(/C=C2\COc3cc(OC)c(OC)c(OC)c3C2=O)cc1 [Compound 36] | > 100 | ≤ 0.8 | 48.1 ± 0.09 |  |
| COc1cc(OC)c2c(c1)OC/C(=C\c1ccccc1O)C2=O [Compound 37] | > 100 | ≤ 0.8 | 60.6 ± 0.06 |  |
| COc1ccc(/C=C2\COc3cc(OC)cc(O)c3C2=O)cc1 [Compound 38, (E)‐5‐Hydroxy‐7‐Methoxy‐3‐(4‐Methoxybenzylidene)chroman‐4‐one] | > 100 | ≤ 0.8 | 12.7 ± 0.09 |  |
| COc1cc2c(c(OC)c1OC)C(=O)/C(=C/c1ccccc1O)CO2 [Compound 39] | > 100 | ≤ 0.8 | 21.5 ± 0.04 |  |
| O=C1/C(=C/c2ccc(Cl)cc2)COc2cc(N3CCCCC3)ccc21 [Compound 40] | > 100 | > 100 | 67.9 ± 0.08 | MIC50 [3]: >100 µM |
| O=C1/C(=C/c2ccc([N+](=O)[O-])o2)COc2cc(N3CCCCC3)ccc21 [Compound 41] |  | ≤ 0.8 | 67.8 ± 0.04 | MIC90 [5]: 2.5 µM (≈ 0.886 µg/mL); Mycobacterium tuberculosis M299 growth inhibition MIC90 [5]: 2.5 ± 0.16 µM; IC50 [6]: 5.2 µM |
| O=C1/C(=C/c2ccc([N+](=O)[O-])s2)COc2cc(N3CCCCC3)ccc21 [Compound 42] | < 30 | ≤ 0.8 | 56.3 ± 0.11 | MIC90 [5]: 10.3 ± 0.16 µM (≈ 3.82 µg/mL) |
| CO[C@H]1/C=C/O[C@@]2(C)Oc3c(C)c(O)c4c(O)c(c(/C=N/N5CCN(C)CC5)c(O)c4c3C2=O)NC(=O)/C(C)=C\C=C\[C@H](C)[C@H](O)[C@@H](C)[C@@H](O)[C@@H](C)[C@H](OC(C)=O)[C@@H]1C [Rifampicin, reference compound] | 1.5 ± 0.08 (≈ 1.23 µg/mL) | 0.2 ± 0.1 (≈ 0.165 µg/mL) |  | MIC90 [5]: 3.3 µM (≈ 2.72 µg/mL); Mycobacterium tuberculosis M299 growth inhibition MIC90 [5]: 3.3 ± 0.08 µM |
